Measured values taken from patent US7495025B2, “Spiro-1,2,4-trioxanes” (Council of Scientific and Industrial Research, priority 2005, dated 2009).
Read-outs that look alike come from different tables or passages of the source.

System: multi-drug resistant strain of Plasmodium yoelii Nigeriensis
Assay: Antimalarial activity against multi-drug resistant P. yoelii in Swiss mice (4-day treatment, observation till day 28)
Assay type: in vivo
Conditions: for inhibition in vivo at 24 mg/kg/day / inhibition in vivo at 48 mg/kg/day / responders at 24 mg/kg/day / responders at 48 mg/kg/day / inhibition in vivo at 96 mg/kg/day / responders at 96 mg/kg/day: Plasmodium yoelii; for inhibition in vivo at 24 mg/kg/day / inhibition in vivo at 48 mg/kg/day / inhibition in vivo at 96 mg/kg/day: 96 h, read-out: % Suppression on Day 4; for responders at 24 mg/kg/day / responders at 48 mg/kg/day / responders at 96 mg/kg/day: 672 h
Protocol: The antimalarial activity of the test compounds was evaluated in rodent using multi-drug resistant strain of Plasmodium yoelii Nigeriensis in Swiss mice.
Random bred Swiss mice of either sex (20±2 gm) were inoculated intraperitoneally with 1×10^5 P. yoelii (MDR) parasites on day zero. The treatments with test compounds were administered to group of 5 mice each at different dose levels ranging between 24-96 mg/kg/day. The treatment was administered in groundnut oil intramuscularly and orally for 4 consecutive days (day 0-3). Blood smears from experimental mice were observed on day 4 and 7, day 10 and thereafter at regular intervals till day 28 or death of the animal. The parasitaemia level on day 4 was compared with vehicle control group and the percent suppression of parasitaemia in treated groups were calculated.
The dose at which no parasitaemia develop during the observation period has been reported as the curative dose.

[1] = po, read-out: Mice alive on day-28
[2] = Swiss mice, 96 mg/kg/day, i.m., in groundnut oil, days 0-3
[3] = Swiss mice, 96 mg/kg/day, oral, in groundnut oil, days 0-3
[4] = Swiss mice, 96 mg/kg/day, oral, in groundnut oil, days 0-3, read-out: Mice alive on day-28 (converted)
[5] = im, Swiss mice, 96 mg/kg/day, i.m., in groundnut oil, days 0-3
[6] = im, Swiss mice, 96 mg/kg/day, i.m., in groundnut oil, days 0-3, read-out: Mice alive on day-28 (converted)
[7] = Swiss mice, 48 mg/kg/day, oral, in groundnut oil, days 0-3
[8] = Swiss mice, 48 mg/kg/day, oral, in groundnut oil, days 0-3, read-out: Mice alive on day-28 (converted)
[9] = Swiss mice, 24 mg/kg/day, oral, in groundnut oil, days 0-3
[10] = Swiss mice, 24 mg/kg/day, oral, in groundnut oil, days 0-3, read-out: Mice alive on day-28 (converted)
[11] = im, Swiss mice, 48 mg/kg/day, i.m., in groundnut oil, days 0-3
[12] = im, Swiss mice, 48 mg/kg/day, i.m., in groundnut oil, days 0-3, read-out: Mice alive on day-28 (converted)

SMILES: CCN(CC)CCCC(C)Nc1ccnc2cc(Cl)ccc12 (centres unmarked) [Chloroquine, reference compound]
- inhibition in vivo at 24 mg/kg/day (po): 100%
- inhibition in vivo at 48 mg/kg/day (po): 100%
- responders at 24 mg/kg/day [1]: 0%
- responders at 48 mg/kg/day [1]: 40%

SMILES: C=C(c1ccccc1)C1COC2(CCC(=O)CC2)OO1 (centres unmarked) [Compound 3a, 3-(1-Phenyl-vinyl)-1,2,5-trioxaspiro[5.5]undec-9-one]
- % Suppression on Day 4 [2]: 99%
- Mice alive on day-28 [2]: 0/5

SMILES: C=C(c1ccc(-c2ccccc2)cc1)C1COC2(CCC(=O)CC2)OO1 (centres unmarked) [Compound 3b, 3-(1-Biphenyl-4yl-vinyl)-1,2,5-trioxaspiro[5.5]undec-9-one]
- % Suppression on Day 4 [2]: 100%
- Mice alive on day-28 [2]: 1/5

SMILES: C=C(c1ccc(Cl)cc1)C1COC2(CCC(=O)CC2)OO1 (centres unmarked) [Compound 3c, 3-[1-(4-Chloro-phenyl)-vinyl]-1,2,5-trioxa-spiro[5.5]undecan-9-one]
- inhibition in vivo at 96 mg/kg/day [3]: 100%
- responders at 96 mg/kg/day [4]: 0%

SMILES: C=C(c1ccc(C2CCCCC2)cc1)C1COC2(CCC(=O)CC2)OO1 (centres unmarked) [Compound 3f, 3-[1-(4-Cyclohexyl-phenyl)-vinyl]-1,2,5-trioxa-spiro[5.5]undecan-9-one]
- inhibition in vivo at 96 mg/kg/day [3]: 100%
- responders at 96 mg/kg/day [4]: 60%
- inhibition in vivo at 96 mg/kg/day [5]: 100%
- responders at 96 mg/kg/day [6]: 40%

SMILES: C=C(c1cccc2ccccc12)C1COC2(CCC(=O)CC2)OO1 (centres unmarked) [Compound 3g, 3-(1-Naphthalen-1-yl-vinyl)-1,2,5-trioxa-spiro [5.5]undecan-9-one]
- inhibition in vivo at 96 mg/kg/day [3]: 100%
- responders at 96 mg/kg/day [4]: 20%

SMILES: C=C(c1ccccc1)C1COC2(CCC(=CC(=O)OCC)CC2)OO1 (centres unmarked) [Compound 4aa, [3-(1-Phenyl-vinyl)-1,2,5-trioxa-spiro[5.5]undec-9-ylidene]-acetic acid ethyl ester]
- inhibition in vivo at 48 mg/kg/day [7]: 100%
- responders at 48 mg/kg/day [8]: 100%
- inhibition in vivo at 96 mg/kg/day [5]: 99%
- responders at 96 mg/kg/day [6]: 40%

SMILES: C=C(c1ccc(-c2ccccc2)cc1)C1COC2(CCC(=CC(=O)OCC)CC2)OO1 (centres unmarked) [Compound 4ab, [3-(1-Biphenyl-4-yl-vinyl)-1,2,5-trioxa-spiro[5.5]undec-9-ylidene]-acetic acid ethyl ester]
- inhibition in vivo at 96 mg/kg/day [3]: 100%
- responders at 96 mg/kg/day [4]: 100%

SMILES: C=C(c1ccc(Cl)cc1)C1COC2(CCC(=CC(=O)OCC)CC2)OO1 (centres unmarked) [Compound 4ac, {3-[1-(4-Chloro-phenyl)-vinyl]-1,2,5-trioxa-spiro[5.5]undec-9-ylidene}-acetic acid ethyl ester]
- inhibition in vivo at 24 mg/kg/day [9]: 100%
- inhibition in vivo at 48 mg/kg/day [7]: 100%
- responders at 24 mg/kg/day [10]: 60%
- responders at 48 mg/kg/day [8]: 100%
- inhibition in vivo at 48 mg/kg/day [11]: 100%
- inhibition in vivo at 96 mg/kg/day [5]: 100%
- responders at 48 mg/kg/day [12]: 60%
- responders at 96 mg/kg/day [6]: 100%

SMILES: C=C(c1ccc(OC)cc1)C1COC2(CCC(=CC(=O)OCC)CC2)OO1 (centres unmarked) [Compound 4ad, {3-[1-(4-Methoxy-phenyl)-vinyl]-1,2,5-trioxa-spiro[5.5]undec-9-ylidene}-acetic acid ethyl ester]
- inhibition in vivo at 96 mg/kg/day [3]: 100%
- responders at 96 mg/kg/day [4]: 100%
- inhibition in vivo at 96 mg/kg/day [5]: 100%
- responders at 96 mg/kg/day [6]: 40%

SMILES: C=C(c1ccc(C)cc1)C1COC2(CCC(=CC(=O)OCC)CC2)OO1 (centres unmarked) [Compound 4ae, [3-(1-p-Tolyl-vinyl)-1,2,5-trioxa-spiro[5.5]undec-9-ylidene]-acetic acid ethyl ester]
- inhibition in vivo at 24 mg/kg/day [9]: 100%
- inhibition in vivo at 48 mg/kg/day [7]: 100%
- responders at 24 mg/kg/day [10]: 60%
- responders at 48 mg/kg/day [8]: 100%
- inhibition in vivo at 48 mg/kg/day [11]: 100%
- inhibition in vivo at 96 mg/kg/day [5]: 100%
- responders at 48 mg/kg/day [12]: 40%
- responders at 96 mg/kg/day [6]: 100%

SMILES: C=C(c1ccc(C2CCCCC2)cc1)C1COC2(CCC(=CC(=O)OCC)CC2)OO1 (centres unmarked) [Compound 4af, {3-[1-(4-Cyclohexyl-phenyl)-vinyl]-1,2,5-trioxa-spiro[5.5]undec-9-ylidene}-acetic acid ethyl ester]
- inhibition in vivo at 48 mg/kg/day [7]: 100%
- inhibition in vivo at 96 mg/kg/day [3]: 100%
- responders at 48 mg/kg/day [8]: 60%
- responders at 96 mg/kg/day [4]: 80%

SMILES: C=C(c1cccc2ccccc12)C1COC2(CCC(=CC(=O)OCC)CC2)OO1 (centres unmarked) [Compound 4ag, [3-(1-Naphthalen-1-yl-vinyl)-1,2,5-trioxa-spiro[5.5]undec-9-ylidene]-acetic acid ethyl ester]
- inhibition in vivo at 96 mg/kg/day [5]: 100%
- responders at 96 mg/kg/day [6]: 100%

SMILES: C=C(c1ccc2ccccc2c1)C1COC2(CCC(=CC(=O)OCC)CC2)OO1 (centres unmarked) [Compound 4ah, [3-(1-Naphthalen-2-yl-vinyl)-1,2,5-trioxa-spiro[5.5]undec-9-ylidene]-acetic acid ethyl ester]
- inhibition in vivo at 24 mg/kg/day [9]: 100%
- inhibition in vivo at 48 mg/kg/day [7]: 100%
- responders at 24 mg/kg/day [10]: 20%
- responders at 48 mg/kg/day [8]: 100%
- inhibition in vivo at 96 mg/kg/day [5]: 88%
- responders at 96 mg/kg/day [6]: 40%

SMILES: C=C(c1ccc(-c2ccccc2)cc1)C1COC2(CCC(=C(C)C(=O)OCC)CC2)OO1 (centres unmarked) [Compound 4bb, 2-[3-(1-Biphenyl-4-yl-vinyl)-1,2,5-trioxa-spiro [5.5]undec-9-ylidene]-propionic acid ethyl ester]
- inhibition in vivo at 96 mg/kg/day [3]: 100%
- responders at 96 mg/kg/day [4]: 60%

SMILES: C=C(c1ccc(C2CCCCC2)cc1)C1COC2(CCC(=C(C)C(=O)OCC)CC2)OO1 (centres unmarked) [Compound 4bf, 2-{3-[1-(4-Cyclohexyl-phenyl)-vinyl]-1,2,5-trioxa-spiro[5.5]undec-9-ylidene}-propionic acid ethyl ester]
- inhibition in vivo at 96 mg/kg/day [3]: 100%
- responders at 96 mg/kg/day [4]: 40%

SMILES: CCO[C@H]1O[C@@H]2O[C@@]3(C)CC[C@H]4[C@H](C)CC[C@@H]([C@H]1C)[C@@]24OO3 [β-Arteether, reference compound]
- % Suppression on Day 4 [9]: 100%
- Mice alive on day-28 [9]: 1/5
- % Suppression on Day 4 [7]: 100%
- Mice alive on day-28 [7]: 5/5
